Measured values taken from patent US6132740A, “Resorcinol derivatives” (Pfizer Inc., priority 1998, dated 2000).
Several values for one entry are separate records, joined by “and”; a condition that tells them apart may be missing. Identical values can stand only once.

Legend:
black guinea pigs = assay: In vivo depigmentation study in black guinea pigs; design: species or system guinea pig; settings: for depigmentation of skin (in words): 5% in ethanol:propylene glycol 70:30, twice daily, 5 days per week for 4-8 weeks, black or dark brown guinea pigs; for reduction of pigmentation in treated ears (in words) / reversibility of the depigmentation effect (in words) / Depigmentation effect, Δ light reflectance (treated ear - untreated ear), 1 week post-treatment / Depigmentation effect, Δ light reflectance (treated ear - untreated ear), 3-week / Depigmentation effect, Δ light reflectance (treated ear - untreated ear), 6-week / Depigmentation effect, Δ light reflectance (treated ear - untreated ear), 8.5 week: 5% in ethanol:propylene glycol (70:30); for reduction of pigmentation in treated ears (in words) / reversibility of the depigmentation effect (in words): ears of black guinea pigs; for reversibility of the depigmentation effect (in words): after ceasing treatment; for Depigmentation effect, Δ light reflectance (treated ear - untreated ear), 1 week post-treatment / Depigmentation effect, Δ light reflectance (treated ear - untreated ear), 3-week / Depigmentation effect, Δ light reflectance (treated ear - untreated ear), 6-week / Depigmentation effect, Δ light reflectance (treated ear - untreated ear), 8.5 week: topical to ears of black guinea pigs, one value per animal; for Depigmentation effect, Δ light reflectance (treated ear - untreated ear), 3-week / Depigmentation effect, Δ light reflectance (treated ear - untreated ear), 6-week / Depigmentation effect, Δ light reflectance (treated ear - untreated ear), 8.5 week: positive value indicates depigmentation
Procedure: Black or dark brown guinea pigs with homogeneous skin color can be used in this study. A solution of the test compound of formula I (5% in ethanol:propylene glycol, 70:30) and the vehicle control are applied to the animals twice daily, 5 days per week for 4-8 weeks.
In vivo experiments were carried out to determine the depigmenting effects of 4-cyclohexylresorcinol and 4-cyclopentylresorcinol using the assay described above (in vivo study). Thus, 5% 4-cyclohexylresorcinol and 5% 4-cyclopentylresorcinol, each in ethanol:propylene glycol (70:30), were administered separately to the ears of black guinea pigs. Depigmentation was determined by subtracting the light reflectance of untreated ears from the light reflectance of treated ears.

human tyrosinase = target: T1, human tyrosinase (Homo sapiens, UniProt P14679); assay: Tyrosinase (DOPA oxidase) assay using cell lysate; format: biochemical; settings: SKMEL 188 human melanoma cell lysate, L-DOPA 100 μg/ml, 8 hours, read at 405 nm
T1 construct: endogenous in cells; host or cells: SKMEL 188 human melanoma cell line (licensed from Memorial Sloan-Kettering), lysate
T1 sequence (P14679 19-529): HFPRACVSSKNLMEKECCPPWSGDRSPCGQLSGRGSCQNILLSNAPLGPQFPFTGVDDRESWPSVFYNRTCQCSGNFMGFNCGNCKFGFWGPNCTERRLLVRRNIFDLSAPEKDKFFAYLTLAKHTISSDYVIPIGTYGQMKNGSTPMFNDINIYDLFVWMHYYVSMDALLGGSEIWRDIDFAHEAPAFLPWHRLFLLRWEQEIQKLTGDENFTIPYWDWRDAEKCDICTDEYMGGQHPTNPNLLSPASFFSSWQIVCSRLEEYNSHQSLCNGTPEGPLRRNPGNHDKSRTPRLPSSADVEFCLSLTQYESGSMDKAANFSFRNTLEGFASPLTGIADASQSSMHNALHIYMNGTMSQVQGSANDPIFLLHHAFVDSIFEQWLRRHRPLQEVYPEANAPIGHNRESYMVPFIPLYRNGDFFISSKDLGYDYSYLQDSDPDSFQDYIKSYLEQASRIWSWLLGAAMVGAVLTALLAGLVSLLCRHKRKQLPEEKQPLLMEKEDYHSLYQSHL
Procedure: 1. Tyrosinase (DOPA oxidase) Assay Using Cell Lysate:
Human melanoma cell line, SKMEL 188 (licensed from Memorial Sloan-Kettering), is used in the cell lysate assay and the screen. In the assay, compounds and L-dihydroxyphenylalanine (L-DOPA) (100 μg/ml) are incubated with the cell lysates containing human tyrosinase for 8 hours before the plates are read at 405 nm. Potency of the compounds in DOPA oxidase assay is correlated very well with that in tyrosine hydroxylase assay using 3H-tyrosine as a substrate.

Row | Structure (SMILES) | depigmentation of skin (in words) (black guinea pigs) | reduction of pigmentation in treated ears (in words) (black guinea pigs) | reversibility of the depigmentation effect (in words) (black guinea pigs) | Depigmentation effect, Δ light reflectance (treated ear - untreated ear), 1 week post-treatment (black guinea pigs) | Depigmentation effect, Δ light reflectance (treated ear - untreated ear), 3-week (black guinea pigs) | Depigmentation effect, Δ light reflectance (treated ear - untreated ear), 6-week (black guinea pigs) | Depigmentation effect, Δ light reflectance (treated ear - untreated ear), 8.5 week (black guinea pigs) | IC50 (human tyrosinase) [µM]
1 | Oc1ccc(C2CCCCC2)c(O)c1 [4-cyclohexylresorcinol, 4-Cyclohexylresorcinol] | depigmentation of skin was visualized | reduced pigmentation in treated ears starting 3 weeks after initial treatment | reversible, and repigmentation partially resumed one week after ceasing treatment | 1 and 0 | 13 and 0 and 14 and 3 | 8 and 0 and 14 and 7 | 6 and 7 and 19 | 0.3
2 | Oc1ccc(C2CCCC2)c(O)c1 [4-cyclopentylresorcinol, 4-Cyclopentylresorcinol] | depigmentation of skin was visualized | reduced pigmentation in treated ears starting 3 weeks after initial treatment | reversible, and repigmentation partially resumed one week after ceasing treatment | 6 | 15 and 9 and 4 | 12 and 9 | 10 and 18 and 7 | 
